The values below come from ChEMBL document CHEMBL1201862, “PubChem BioAssay data set” (2004).

For assay [1], the target named is T1, Cytochrome P450 1A2 (Homo sapiens, UniProt P05177).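 Further: PubChem cytochrome P450 panel assay, CYP1A2 panel member.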
T1 sequence (P05177 whole entry): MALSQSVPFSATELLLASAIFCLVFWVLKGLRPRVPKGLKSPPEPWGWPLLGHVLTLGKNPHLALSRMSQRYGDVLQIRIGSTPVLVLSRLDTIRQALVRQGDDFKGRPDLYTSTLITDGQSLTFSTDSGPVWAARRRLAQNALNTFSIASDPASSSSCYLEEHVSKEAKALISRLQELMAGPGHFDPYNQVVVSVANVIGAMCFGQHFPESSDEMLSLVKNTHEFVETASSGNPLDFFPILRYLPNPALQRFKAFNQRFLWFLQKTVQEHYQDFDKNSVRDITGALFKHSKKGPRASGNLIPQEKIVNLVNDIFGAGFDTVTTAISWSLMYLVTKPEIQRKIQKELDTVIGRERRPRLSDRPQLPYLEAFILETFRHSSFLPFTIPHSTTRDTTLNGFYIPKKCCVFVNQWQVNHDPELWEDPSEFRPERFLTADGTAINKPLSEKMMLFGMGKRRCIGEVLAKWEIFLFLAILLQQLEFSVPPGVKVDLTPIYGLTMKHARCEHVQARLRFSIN

For assay [2], the target named is T2, Protein skinhead-1 (Caenorhabditis elegans, UniProt P34707).
T2 sequence (P34707 whole entry): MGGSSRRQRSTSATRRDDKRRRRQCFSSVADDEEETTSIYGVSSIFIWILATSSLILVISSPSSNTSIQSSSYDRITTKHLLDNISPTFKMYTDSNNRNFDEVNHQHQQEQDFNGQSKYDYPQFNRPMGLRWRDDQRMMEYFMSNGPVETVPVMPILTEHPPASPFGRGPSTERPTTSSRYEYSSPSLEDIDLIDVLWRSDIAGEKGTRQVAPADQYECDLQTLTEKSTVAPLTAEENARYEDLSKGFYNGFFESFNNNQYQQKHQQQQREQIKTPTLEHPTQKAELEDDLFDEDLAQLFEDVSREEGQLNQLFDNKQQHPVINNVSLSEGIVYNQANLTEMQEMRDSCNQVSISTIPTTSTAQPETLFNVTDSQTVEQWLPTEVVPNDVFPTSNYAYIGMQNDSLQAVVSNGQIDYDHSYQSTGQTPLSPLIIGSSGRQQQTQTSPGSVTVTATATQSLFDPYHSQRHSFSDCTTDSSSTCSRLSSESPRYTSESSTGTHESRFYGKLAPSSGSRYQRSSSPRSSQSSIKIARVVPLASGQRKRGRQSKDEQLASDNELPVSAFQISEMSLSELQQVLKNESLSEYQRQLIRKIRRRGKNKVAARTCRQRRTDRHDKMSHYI
The class given is functional.

Assay [3] addresses Cytochrome P450 3A4 (Homo sapiens, UniProt P08684).
Assay [4] concerns INS1. Nature of the assay: INS-1E survival protection against cytokine death – cell-based, luminescence, retest, dose response (AID 449756).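 Further: cell death triggered by IL-1 beta plus TNF-alpha plus IFN-gamma mixture; protective hits raise ATP signal compared with cytokine alone wells.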 The class given is functional. The settings on record: Rattus norvegicus.
Assay [5] concerns the target T3, Short transient receptor potential channel 4 (Mus musculus, UniProt Q9QUQ5).
T3 sequence (Q9QUQ5 whole entry): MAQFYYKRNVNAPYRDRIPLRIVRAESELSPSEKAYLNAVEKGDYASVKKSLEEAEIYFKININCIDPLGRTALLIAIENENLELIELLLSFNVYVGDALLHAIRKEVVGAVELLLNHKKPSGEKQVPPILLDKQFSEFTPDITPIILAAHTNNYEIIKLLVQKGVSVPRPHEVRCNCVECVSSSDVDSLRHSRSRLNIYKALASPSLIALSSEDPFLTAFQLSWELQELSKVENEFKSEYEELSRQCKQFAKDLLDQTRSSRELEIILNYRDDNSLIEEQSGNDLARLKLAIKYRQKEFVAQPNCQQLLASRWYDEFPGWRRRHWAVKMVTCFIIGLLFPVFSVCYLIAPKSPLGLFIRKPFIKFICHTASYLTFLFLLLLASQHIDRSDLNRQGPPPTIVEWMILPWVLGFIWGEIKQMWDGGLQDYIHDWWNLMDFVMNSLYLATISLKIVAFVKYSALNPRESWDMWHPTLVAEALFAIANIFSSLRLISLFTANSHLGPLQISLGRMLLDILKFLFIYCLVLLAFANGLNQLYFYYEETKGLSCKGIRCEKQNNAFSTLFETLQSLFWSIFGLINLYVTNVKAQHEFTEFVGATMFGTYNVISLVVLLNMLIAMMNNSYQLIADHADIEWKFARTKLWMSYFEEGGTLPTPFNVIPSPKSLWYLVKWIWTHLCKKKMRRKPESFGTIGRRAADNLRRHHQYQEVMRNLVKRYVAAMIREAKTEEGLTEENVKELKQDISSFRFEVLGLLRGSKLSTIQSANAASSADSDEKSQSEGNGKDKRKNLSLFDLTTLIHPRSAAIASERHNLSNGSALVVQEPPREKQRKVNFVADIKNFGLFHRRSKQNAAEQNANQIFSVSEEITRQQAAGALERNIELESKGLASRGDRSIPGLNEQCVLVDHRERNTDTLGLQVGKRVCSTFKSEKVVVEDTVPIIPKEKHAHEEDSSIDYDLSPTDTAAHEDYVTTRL
The experiment in a line: block of DAMGO-driven TRPC4 calcium entry – cell-based, HEK293 TRPC4/mu-opioid, Fluo-4 calcium, dose response (AID 434942).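 Further: potency of inhibitors blocking the TRPC4 calcium response.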 The class given is functional.

Assay [6] has as its target T4, Ubiquitin-conjugating enzyme E2 N (Homo sapiens, UniProt P61088).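 Further: Dose-response confirmation in a TR-FRET assay detecting UBC13-driven polyubiquitin chain formation, inhibition measured.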
T4 sequence (P61088 whole entry): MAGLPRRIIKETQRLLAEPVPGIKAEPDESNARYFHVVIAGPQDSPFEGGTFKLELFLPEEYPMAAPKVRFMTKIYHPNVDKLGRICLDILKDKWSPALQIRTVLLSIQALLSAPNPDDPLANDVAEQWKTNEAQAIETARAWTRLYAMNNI
The class given is functional.

The target of assay [7] is Cytochrome P450 2D6 (Homo sapiens, UniProt P10635).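 Further: CYP2D6 member of a cytochrome P450 panel assay.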
In assay [8] the target is Cytochrome P450 2C19 (Homo sapiens, UniProt P33261). Nature of the assay: Cytochrome panel assay with activity outcomes. Panel member name: p450-cyp2c19 Compounds with AC50 equal or less than 10 uM are considered active. The conditions noted are these: read-out: AC50. The class given is functional.
Assay [9] is described as follows: THP-1 cell cytotoxicity, dose response, cytotoxicity control for non-replicating M. tuberculosis project (AID 489025). The class given is functional.
A short description of assay [10]: microbe, parasite or virus in culture. The settings on record: Mycobacterium tuberculosis. The class given is functional.
A short description of assay [11]: cells. The class given is functional.
Assay [12] has as its target Cytochrome P450 2C9 (Homo sapiens, UniProt P11712).
Assay [13] deals with T5, Rac GTPase-activating protein 1 (Homo sapiens, UniProt Q9H0H5).
T5 sequence (Q9H0H5 whole entry): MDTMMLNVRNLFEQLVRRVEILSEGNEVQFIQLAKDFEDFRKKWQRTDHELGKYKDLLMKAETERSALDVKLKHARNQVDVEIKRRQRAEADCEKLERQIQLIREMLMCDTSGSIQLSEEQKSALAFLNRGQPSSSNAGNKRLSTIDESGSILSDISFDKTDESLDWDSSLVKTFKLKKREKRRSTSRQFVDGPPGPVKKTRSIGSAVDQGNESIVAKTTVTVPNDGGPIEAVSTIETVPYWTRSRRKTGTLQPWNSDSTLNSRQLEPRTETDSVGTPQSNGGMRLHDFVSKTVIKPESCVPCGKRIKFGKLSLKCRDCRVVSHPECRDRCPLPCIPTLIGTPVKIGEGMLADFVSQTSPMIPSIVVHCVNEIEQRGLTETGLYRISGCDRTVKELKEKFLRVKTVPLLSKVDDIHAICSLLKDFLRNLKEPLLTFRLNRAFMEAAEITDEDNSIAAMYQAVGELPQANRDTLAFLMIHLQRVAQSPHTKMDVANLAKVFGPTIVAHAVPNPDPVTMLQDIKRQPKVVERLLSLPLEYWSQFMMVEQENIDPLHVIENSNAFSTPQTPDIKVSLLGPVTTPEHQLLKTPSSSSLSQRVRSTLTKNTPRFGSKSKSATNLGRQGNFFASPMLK
Nature of the assay: blockers of MgcRacGAP-driven Rac1 GTP hydrolysis – biochemical, ADP Hunter fluorescence, primary and confirmatory, confirmation (AID 624330). The class given is functional.

The nature of assay [14]: Luminescence Cell-Based Dose Response HTS to Identify Activators of Luciferase Translation or Activity in H4 […] Cells. [Related pubchem assays: 1829 (Project Summary), 1814 (Primary HTS)]. The class given is functional.
Assay [15] is described as follows: Luminescence Cell-Based Dose Confirmation HTS to Identify Inhibitors of Platelet Dense Granule Release. [Related pubchem assays: 1663 (Primary HTS), 1678 (Summary of Project)]. The class given is functional.
Assay [16] concerns the target Luciferin 4-monooxygenase (Photinus pyralis, UniProt P08659). Nature of the assay: inhibition of purified Photinus pyralis luciferase – biochemical, luminescence, dose response (AID 1891).
Assay [17] in a line: P. falciparum Dd2 growth inhibitors, dose response, SYBR Green, cherry-picked samples (AID 1159567). The class given is functional, cell-based.

Active and inactive are the calls of the source.

Cytochrome P450 2C19, sequence (P33261 whole entry): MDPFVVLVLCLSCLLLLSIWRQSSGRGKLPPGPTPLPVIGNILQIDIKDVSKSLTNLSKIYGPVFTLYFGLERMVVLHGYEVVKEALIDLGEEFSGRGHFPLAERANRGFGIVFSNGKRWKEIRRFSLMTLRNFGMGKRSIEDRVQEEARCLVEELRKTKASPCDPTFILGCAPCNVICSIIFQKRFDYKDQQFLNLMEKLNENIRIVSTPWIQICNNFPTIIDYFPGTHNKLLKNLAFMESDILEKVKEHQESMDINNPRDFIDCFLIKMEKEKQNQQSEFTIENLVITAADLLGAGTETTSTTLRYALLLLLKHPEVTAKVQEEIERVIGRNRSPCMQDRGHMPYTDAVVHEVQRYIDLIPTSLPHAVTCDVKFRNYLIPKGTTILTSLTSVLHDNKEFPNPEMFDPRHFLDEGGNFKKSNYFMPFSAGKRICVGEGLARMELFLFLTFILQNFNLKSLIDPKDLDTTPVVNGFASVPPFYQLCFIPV
Luciferin 4-monooxygenase, sequence (P08659 whole entry): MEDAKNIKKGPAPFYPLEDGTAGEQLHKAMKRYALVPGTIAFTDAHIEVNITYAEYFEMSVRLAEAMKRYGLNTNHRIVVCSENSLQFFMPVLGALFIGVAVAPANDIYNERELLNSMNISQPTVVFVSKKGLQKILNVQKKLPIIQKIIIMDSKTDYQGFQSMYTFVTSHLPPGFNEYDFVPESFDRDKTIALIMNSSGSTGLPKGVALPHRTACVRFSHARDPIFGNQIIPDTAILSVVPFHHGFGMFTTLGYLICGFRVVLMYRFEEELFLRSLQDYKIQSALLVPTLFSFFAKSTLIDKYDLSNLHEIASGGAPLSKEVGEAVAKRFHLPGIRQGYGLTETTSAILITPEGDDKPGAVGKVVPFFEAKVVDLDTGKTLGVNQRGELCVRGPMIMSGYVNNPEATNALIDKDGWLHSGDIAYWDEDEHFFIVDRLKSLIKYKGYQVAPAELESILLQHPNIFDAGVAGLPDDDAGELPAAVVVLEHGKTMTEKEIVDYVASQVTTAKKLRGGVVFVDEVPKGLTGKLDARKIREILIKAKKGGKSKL
Cytochrome P450 3A4, sequence (P08684 whole entry): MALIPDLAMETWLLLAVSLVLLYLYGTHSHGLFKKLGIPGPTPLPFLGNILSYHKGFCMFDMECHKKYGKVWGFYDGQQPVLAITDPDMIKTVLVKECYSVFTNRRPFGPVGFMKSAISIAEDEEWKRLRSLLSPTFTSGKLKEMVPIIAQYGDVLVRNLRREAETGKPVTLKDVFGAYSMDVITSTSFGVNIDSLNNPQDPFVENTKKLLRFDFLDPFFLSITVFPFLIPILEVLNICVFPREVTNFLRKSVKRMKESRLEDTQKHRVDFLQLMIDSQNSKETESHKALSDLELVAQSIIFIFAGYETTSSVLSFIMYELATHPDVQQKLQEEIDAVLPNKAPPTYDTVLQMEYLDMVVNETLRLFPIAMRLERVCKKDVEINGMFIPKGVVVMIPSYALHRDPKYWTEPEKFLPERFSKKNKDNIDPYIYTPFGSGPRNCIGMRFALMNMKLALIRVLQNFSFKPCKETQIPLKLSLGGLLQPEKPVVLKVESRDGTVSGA
Cytochrome P450 2C9, sequence (P11712 whole entry): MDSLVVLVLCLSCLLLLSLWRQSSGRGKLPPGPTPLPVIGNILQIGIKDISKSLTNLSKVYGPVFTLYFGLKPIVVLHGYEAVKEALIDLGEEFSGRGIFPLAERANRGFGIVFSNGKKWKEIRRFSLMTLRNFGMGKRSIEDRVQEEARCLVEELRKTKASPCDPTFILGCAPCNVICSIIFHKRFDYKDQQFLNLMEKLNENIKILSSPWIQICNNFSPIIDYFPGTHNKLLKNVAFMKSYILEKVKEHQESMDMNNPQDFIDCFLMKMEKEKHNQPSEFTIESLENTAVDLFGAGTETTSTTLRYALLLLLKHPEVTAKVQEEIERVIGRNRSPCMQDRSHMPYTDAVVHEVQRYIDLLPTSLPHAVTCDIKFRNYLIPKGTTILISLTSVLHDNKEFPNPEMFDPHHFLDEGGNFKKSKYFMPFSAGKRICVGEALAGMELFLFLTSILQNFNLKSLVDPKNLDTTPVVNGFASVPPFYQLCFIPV
Cytochrome P450 2D6, sequence (P10635 whole entry): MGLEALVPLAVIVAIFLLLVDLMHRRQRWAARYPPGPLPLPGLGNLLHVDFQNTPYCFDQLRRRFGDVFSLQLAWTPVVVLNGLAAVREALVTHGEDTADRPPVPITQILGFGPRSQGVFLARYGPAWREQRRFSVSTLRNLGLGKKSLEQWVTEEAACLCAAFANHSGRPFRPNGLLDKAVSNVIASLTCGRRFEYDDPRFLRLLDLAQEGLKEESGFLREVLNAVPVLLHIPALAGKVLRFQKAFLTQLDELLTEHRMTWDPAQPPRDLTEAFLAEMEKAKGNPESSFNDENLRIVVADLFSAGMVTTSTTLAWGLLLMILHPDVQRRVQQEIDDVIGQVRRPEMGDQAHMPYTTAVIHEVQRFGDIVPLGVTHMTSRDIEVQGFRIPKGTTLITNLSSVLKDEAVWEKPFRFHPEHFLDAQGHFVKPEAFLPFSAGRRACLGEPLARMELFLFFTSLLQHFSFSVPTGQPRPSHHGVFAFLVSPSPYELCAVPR

As a reminder, the AC50 is the concentration giving half of the maximal activity seen. In the case of `O=C1CC2(CCCC2)CC(=O)N1CCCCNC[C@H]1COc2ccccc2O1`, the AC50 in assay [1] was 79.4 µM (inconclusive). What is called IC50 is the point on the concentration scale where inhibition reaches its midpoint. Take `CCCCCNC(=O)c1ccccc1SC`: the IC50 in assay [2] was 74.6 µM (inactive). On to `Oc1ccc(CCNCc2cc3c(cc2Br)OCO3)cc1`, for which the concentration at half-maximal activity (AC50) in assay [1] is 1 µM (inconclusive); in [3], 3.98 µM (inconclusive). For `O=S(=O)(O)c1ccc2c(/N=N\c3cccc4ccccc34)c(O)c(S(=O)(=O)O)cc2c1`, in assay [1], the AC50 is 5.01 µM (inconclusive).

`c1ccc(C2(Cn3ccc4ccccc43)OCCO2)cc1`: the IC50 in assay [2] is > 100 µM (inactive). In addition, in assay [4], the half-maximal activity concentration (AC50) is 40.2 µM (active). For the compound `CC(C)(C)NC(=O)CN(C(=O)CCC(=O)Nc1nccs1)c1cccc(C(F)(F)F)c1`, the IC50 in [2] was > 100 µM (inactive). The term EC50 denotes the concentration at which the effect is half-maximal. On to `O=C(C[n+]1cccc(CNC(=O)c2ccc(OC(F)F)cc2)c1)Nc1ccc(SC(F)F)cc1`, for which, in assay [5], the EC50 is 7.5 µM (active). In assay [6], the IC50 was > 20 µM (inactive). For the compound `O=C(c1cccc(F)c1)N1CCC2(CCCN(C(c3ccccc3)c3ccccc3)C2)CC1`, the AC50 in assay [7] is 10 µM (inconclusive); in assay [8], 5.01 µM (inconclusive); in assay [1] it was 6.31 µM (inconclusive). As for `Cn1c(SCc2c(F)cccc2Cl)nc2c(c1=O)SCC2`, the CC50 in assay [9] is > 40 µM (active). With `CC(C)C1NC(=S)N(Cc2ccccc2)C1=O` (stereo not given), in assay [1], the AC50 is 20 µM (inconclusive).

In the case of `Nc1nc2ccccc2n1CCOc1ccccc1Cl`, the CC50 is > 40 µM (active) in assay [10] and 20.6 µM (active) in [9]. Besides, in assay [11], the IC50 is 23.8 µM (active). With `O=C(Nc1cnn(Cc2ccc(Cl)cc2)c1)c1ccc([N+](=O)[O-])cc1`, the AC50 is 2.24 µM (inconclusive) in [8], 6.31 µM (inconclusive) in [1] and 501 nM (inconclusive) in [12]. For the compound `CC1(C(=O)Nc2cnc3ccccc3c2)CCN1C(=O)c1ccccc1CCc1ccccc1` (stereo not given), the IC50 in [2] was > 100 µM (inactive). On the same count and under the same terms, the result for `O=C1C(=Cc2ccccn2)CCc2ccccc21` reads 43.7 µM (active). `CCN(Cc1ccccc1)c1ccc(/C=N/N2CCOCC2)cc1`: the half-maximal inhibitory concentration (IC50) in [13] is 63.2 µM (active).

`N/C(=N\N=C\c1ccc(O)cc1)c1nonc1N`: in [13], the IC50 was 23.4 µM (active). Besides, the results for the 50% effective concentration (EC50) in assay [14], in assay [15] and in assay [16] were 334 nM (active), 1.07 µM (active) and 8.45 µM (active), respectively. As to `CCn1c2ccccc2c2cc(N)ccc21`, in assay [13], the IC50 is 64.1 µM (active).

With `COc1ccccc1N=NNc1ccccc1OC`, in assay [13], the 50% inhibitory concentration (IC50) is 90.3 µM (active).

As to `C[C@@H]1CN([C@@H](C)CO)S(=O)(=O)c2ccc(C#CC3(O)CCCC3)cc2O[C@H]1CN(C)C(=O)c1ccccc1`, in [17], the AC50 is 4.33 µM (active).

As for `CCC(=O)N1CCCCN2[C@H](C1)[C@H](c1ccc(-c3cccnc3)cc1)[C@@H]2CO`, the AC50 in [17] is 21.9 µM (active).

For the compound `COc1ccccc1NC(=O)N1CCCCN2[C@H](C1)[C@H](c1ccc(C#CC3CC3)cc1)[C@@H]2CO`, in assay [17], the AC50 was 5.95 µM (active). In the case of `O=C(O)c1cnc2c(ccc3ncc(C(=O)O)c(O)c32)c1O`, the AC50 in assay [1] is 5.01 µM (inconclusive). Still for that read-out and setting: with `CC[N+](C)(CC)CCOC(=O)C1c2ccccc2Oc2ccccc21` [METHANTHELINE] the figure was 10 µM (inconclusive).
